Data set [1] deals with OVCAR8 ovarian cancer cells. In words: MTT cytotoxicity assay in OVCAR8 (cisplatin resistant) ovarian cancer cells. Format: cell-based, human. Conditions: 48 h incubation. The method, then: (§1) Cells were exposed to increasing concentrations of the complexes (0.01–100 μM) for 24 and/or 48 h, at 37 °C. The IC50 values were calculated from dose–response curves using the colorimetric MTT assay. […] Most complexes presented a similar cytotoxicity profile compared to Auranofin, but higher activity compared to Cisplatin, and, most importantly, were active in the Cisplatin-resistant OVCAR8 cells (Table 2).
(§2) The cytotoxic activity of the complexes was evaluated in the A2780 (cisplatin sensitive) (Sigma-Aldrich) and OVCAR8 (cisplatin resistant) (ATCC) ovarian cancer cells. Cells were grown in RPMI-1640 medium (Gibco, Thermo Fisher) supplemented with 10% fetal bovine serum (FBS) and were maintained at 37 °C in a humidified atmosphere with 5% CO2. The complexes were initially dissolved in DMSO and then in culture medium to prepare serial dilutions in the range 10^−9–10^−4 M. After 24 and/or 48 h incubation the cellular viability was measured by the colorimetric MTT assay, as previously described.

Data set [2] concerns A2780 ovarian cancer cells. Also noted: method as in PMID 32391537. Conditions: MTT, starred values, cited from earlier work.
The test system of data set [3] is S. aureus Newman. Details: method as in PMID 32391537. The conditions noted are these: complexes starred as Complex 1 / Complex 2; cited from earlier work.
In data set [4] the test system is E. coli ATCC25922. Also noted: method as in PMID 32391537. Conditions: complexes starred as Complex 1 / Complex 2; cited from earlier work.
The test system of data set [5] is C. albicans SC5134. Details: method as in PMID 32391537. Conditions: complexes starred as Complex 1 / Complex 2; cited from earlier work.
Data set [6] has as its system C. glabrata CBS138. Details: method as in PMID 32391537. Conditions: complexes starred as Complex 1 / Complex 2; cited from earlier work.
The subject of data set [7] is A2780 ovarian cancer cells. In words: MTT cytotoxicity assay in A2780 (cisplatin sensitive) ovarian cancer cells. The data set is classed as cell-based, human. The method, then:
as §1, §2

Data set [8] concerns ΦX174 supercoiled DNA. In words: Electrophoretic mobility of supercoiled DNA. Conditions: 24 h, 37 °C, in words. Format: binding. The procedure: The potential interaction of the complexes with DNA was evaluated through the assessment of the electrophoretic mobility of supercoiled ϕX174 DNA, using a previously described method. To that end, a mixture was prepared containing 200 ng of supercoiled ϕX174 DNA (Promega) in 10 mM of phosphate buffer (pH 7.2) and increasing concentrations of Cisplatin, as a positive control, or the metal complexes (in a total volume of 20 μL). The mixture was incubated for 24 h at 37 °C, in the dark. As controls, samples having non-incubated plasmid and plasmid incubated with DMSO were also prepared. Then, all samples were prepared for electrophoresis through the addition of 2 μL of 10× DNA loading buffer (Applichem) and loading on an 0.8% agarose gel in TBE buffer (Thermo Fisher Scientific, Waltham, MA, USA). The gel was run at 90 V for approximately 3 h, stained using a 3× GelRed® (Biotium) solution in H2O, and the bands visualized using an AlphaImagerEP (Alpha Innotech) under UV light.

In data set [9] the target is human serum albumin (HSA) (Homo sapiens, UniProt P02768). Also noted: method as in PMID 26469679, PMID 22835721, PMID 32283915, doi:10.1016/j.jlumin.2011.06.005. The conditions noted are these: cited from earlier work.
Data set [10] has as its system zebrafish (Danio rerio) embryos. In words: Acute toxicity (mortality) in zebrafish embryo. The data set is classed as in vivo. Conditions: 72 hpf embryos, 0.1–10 μM, 48 h, in words. The text has this: Toxicity is a major challenge for drug development and is the leading cause of drug failure. Consequently, the evaluation of the potential toxicity represents a critical step in the development of new drugs. In this context, the zebrafish embryo represents a notable in vivo vertebrate model for studying the toxic effects of chemical compounds due to the small size, robustness, multiple progenies from a single mating, chemical permeability, easiness of observation and maintenance under laboratory conditions. In addition, the close phylogeny of zebrafish and mammals, with highly conserved signaling pathways, makes this species increasingly used and ideal for performing toxicological studies. Therefore, we evaluated the complexes acute toxicity by measuring mortality of 72 h post-fertilization (hpf) zebrafish embryos when incubated with increasing concentrations of the Au(III) complexes for 48 h.
To test the toxicological effect of the gold (III) complexes, zebrafish (Danio rerio) embryos at developmental stage of 72 h post-fertilization (hpf) were exposed to different concentrations of the target complexes and mortality was assessed for 48 h of treatment. […]

Data set [11] relates to Huh7 cells. In words: Cell viability (cell confluency, Alamar Blue) of P. berghei-infected Huh7 cells. Format: cell-based. The conditions noted are these: 5 µM, in words. The method, then: The in vitro liver stage activity of gold complexes was assessed against P. berghei-infected Huh7 cells, as previously described. Briefly, Huh7 cells were cultured in RPMI-1640 medium supplemented with 10% (v/v) fetal bovine serum, 1% (v/v) penicillin/streptomycin, 1% (v/v) glutamine, 1% (v/v) non-essential amino acids and 10 mM HEPES. On the day prior to infection, Huh7 cells were seeded in 96-well plates at a density of approximately 3.1 × 10^4 cell/cm^2 and incubated at 37 °C, 5% CO2. Stock solutions of the complexes were initially prepared in DMSO and serially diluted in infection medium, i.e., culture medium supplemented with gentamicin (50 µg/mL) and fungizone (0.8 µg/mL), to obtain the test concentrations. As a control, DMSO was diluted in infection medium to a percentage that equals that of the highest compound concentrations tested. These dilutions were added to the cells in triplicates and incubated for 1 h at 37 °C, 5% CO2, after which 1 × 10^4 luciferase-expressing P. berghei sporozoites were added to each well. Plates were centrifuged at 1800× g for 5 min at room temperature and incubated for the duration of the assay. At 46 h post-infection (hpi), the impact of each compound concentration on cell viability was assessed by the Alamar Blue (Invitrogen, Buckinghamshire, UK) assay, according to the manufacturer’s recommendations. Infection was next assessed by bioluminescence, employing the Firefly Luciferase Assay Kit 2.0 (Biotium, Fremont, CA, USA), according to the manufacturer’s recommendations. For IC50 determination, nonlinear regression analysis was employed to fit the normalized results of the dose–response curves, using GraphPad Prism 8 (GraphPad software, La Jolla, CA, USA).
Background: Resazurin is reduced to fluorescent resorufin, in cell work by metabolically active cells.

Data set [12] relates to S. aureus Newman. In words: MIC determination, S. aureus. The data set is classed as cell-based, Staphylococcus aureus. The conditions noted are these: MH broth, 22 h, 37 °C. From the text:
(§3) The bacterial strains Escherichia coli ATCC25922 and Staphylococcus aureus Newman were used in this work and maintained in Lennox Broth (LB) solid medium, composed of 10 g/L tryptone, 5 g/L yeast extract, 5 g/L NaCl and 20 g/L agar. The fungal strains Candida albicans SC5134 and C. glabrata CBS138 were used in this work and maintained in YPD solid medium, composed of 20 g/L glucose, 20 g/L peptone, 10 g/L yeast extract and 15 g/L agar. The strains were isolated from human infections.
(§4) The antimicrobial activity of the complexes towards the bacterial and fungal strains was assessed by the determination of the Minimal Inhibitory Concentration (MIC) of each complex towards the indicated microbial strains, based on standard methods, and as previously described. […] Serial 1:2 dilutions of stock solutions were prepared for each complex in Mueller–Hinton (MH) broth (Fluka Analytical) or RPMI-1640 medium (Sigma) supplemented with 20 g/L glucose and buffered with 0.165 M morpholinepropanesulphonic acid (RPMIG) to pH 7.0. Solutions prepared with MH were used for testing bacteria, while those prepared with RPMIG were used for testing fungi. For antibacterial activity assays, the final concentrations ranged from 250 to 0.24 μg/mL (when stock solution final concentration was 10 mg/mL), 125 μg/mL to 0.12 μg/mL (when stock solution final concentration was 5 mg/mL) and 62.5 to 0.06 μg/mL (when stock solution final concentration was 2.5 mg/mL). For antifungal assays, the final concentrations ranged from 125 μg/mL to 0.12 μg/mL (when stock solution final concentration was 10 mg/mL), 62.5 to 0.06 μg/mL (when stock solution final concentration was 5 mg/mL) and 31.25 to 0.03 μg/mL (when stock solution final concentration was 2.5 mg/mL). Then, 100 μL aliquots of adequately diluted bacterial suspensions of S. aureus Newman or E. coli ATCC 25922 were mixed with the MH serially diluted complexes aliquots to obtain 5 × 10^5 CFU/mL. In the case of fungi, cultures were diluted to obtain a final optical density of 0.025, measured at 530 nm (OD530). Bacterial suspensions were prepared from cultures grown for 5 h in MH broth at 37 °C and 250 rev·min^−1 and adequately diluted with fresh MH medium, while fungal suspensions were prepared from overnight cultures grown in YPD broth at 30 °C and 250 rev.min^−1 and diluted in buffered RPMIG. After 22 h of incubation at 37 °C (bacteria) or 24 h at 35 °C (fungi), the wells’ content was resuspended by pipetting and the OD640 (bacteria) or OD530 (fungi) were measured in a SPECTROstar Nano microplate reader (BMG Labtech).
(§5) At least three independent experiments were performed in duplicate for each complex under study. […] Positive (no complex) and negative controls (no inoculum) were performed for each experiment. The effect of 5% (V/V) DMSO on microbial growth was also assessed.

Data set [13] has as its system E. coli ATCC25922. In words: MIC determination, E. coli. Conditions: MH broth, 22 h, 37 °C. The data set is classed as cell-based, Escherichia coli.
Description: as §3, §4, §5

For data set [14], the system named is C. albicans SC5134. In words: MIC determination, C. albicans. Format: cell-based, Candida albicans. The conditions noted are these: RPMIG, 24 h, 35 °C.
Description: as §3, §4, §5

Data set [15] relates to C. glabrata CBS138. In words: MIC determination, C. glabrata. The data set is classed as cell-based, Candida glabrata. Conditions: RPMIG, 24 h, 35 °C.
Description: as §3, §4, §5

Setting [16] is: 24 h incubation, read-out: IC50 A2780, 24 h.
Where [17] appears, read: 48 h incubation, read-out: IC50 A2780, 48 h.

Where two headings read alike, the source gives them in different places.

human serum albumin (HSA), sequence (P02768 25-609): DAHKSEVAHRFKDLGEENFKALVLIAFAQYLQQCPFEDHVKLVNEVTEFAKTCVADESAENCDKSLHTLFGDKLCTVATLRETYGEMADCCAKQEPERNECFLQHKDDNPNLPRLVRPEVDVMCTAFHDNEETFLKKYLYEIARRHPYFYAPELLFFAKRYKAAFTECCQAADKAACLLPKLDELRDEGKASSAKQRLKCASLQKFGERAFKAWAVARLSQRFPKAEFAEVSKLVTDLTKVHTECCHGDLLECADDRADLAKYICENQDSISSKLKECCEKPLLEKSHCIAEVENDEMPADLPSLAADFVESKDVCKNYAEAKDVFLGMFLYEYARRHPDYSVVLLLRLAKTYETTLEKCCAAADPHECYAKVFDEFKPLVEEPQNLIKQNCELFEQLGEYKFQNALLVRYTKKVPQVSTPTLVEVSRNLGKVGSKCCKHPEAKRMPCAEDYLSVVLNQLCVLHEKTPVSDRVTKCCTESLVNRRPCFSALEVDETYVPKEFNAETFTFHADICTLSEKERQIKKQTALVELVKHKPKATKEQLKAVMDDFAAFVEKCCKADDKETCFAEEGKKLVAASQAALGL

One may read the IC50 as the concentration at which inhibition is half-maximal. Regarding `CC[N+](CC)(CC)CC.CCn1c2c(sc1=S)[S][Au-]1([S]c3sc(=S)n(CC)c3[S]1)[S]2` [[N][AuSEt(=S)]], the IC50 in data set [1] was 3760 ± 710 nM; in [2] (setting [16]), 4230 ± 800 nM; in [2] (setting [17]) it was 1300 ± 320 nM. Further, the “MIC S. aureus Newman” value in [3] is listed as 12.1 ± 3.9 µg/mL. Further, in data set [4], the “MIC E. coli ATCC25922” value is on record as over 125 µg/mL. Moreover, the “MIC C. albicans SC5134” value in [5] was 19.9 ± 2.4 µg/mL. The “MIC C. glabrata CBS138” value in [6] is listed as 9.7 ± 2.7 µg/mL.
Consider `CCCn1c2c(sc1=S)[S][Au-]1([S]c3sc(=S)n(CCC)c3[S]1)[S]2.c1ccc([P+](c2ccccc2)(c2ccccc2)c2ccccc2)cc1` [[P][AuSPr(=S)]], for which the IC50 in [2] (setting [16]) was 4600 ± 1150 nM; in data set [2] (setting [17]), 520 ± 230 nM. Also, the “MIC S. aureus Newman” value in data set [3] is over 125 µg/mL. Moreover, the “MIC E. coli ATCC25922” value in data set [4] is given as over 125 µg/mL. In [5], the “MIC C. albicans SC5134” value is given as over 125 µg/mL. The “MIC C. glabrata CBS138” value in data set [6] is over 125 µg/mL.
`N.N.[Cl][Pt][Cl]` [Cisplatin, reference compound]: the figures for the IC50 in [7] (setting [16]), in data set [1] and in data set [2] (setting [17]) were 21100 ± 5000 nM, 10100 ± 2300 nM and 3600 ± 1250 nM, respectively. The “conformational changes / electrophoretic mobility of DNA” value in [8] was “able to alter the electrophoretic mobility of the nicked and supercoiled forms of DNA in a dose-dependent way”. Further, the “binding constant to HSA” value in data set [9] is reported as 10^2 M^−1.
In the case of `CCn1c2c(sc1=O)[S][Au-]1([S]c3sc(=O)n(CC)c3[S]1)[S]2.c1ccc([P+](c2ccccc2)(c2ccccc2)c2ccccc2)cc1` [[P][AuSEt(=O)]], the figures for the IC50 in data set [7] (setting [16]), in [7] (setting [17]) and in [1] were 860 ± 110 nM, 310 ± 100 nM and 1160 ± 210 nM, respectively. Moreover, in data set [10], the “toxicity in zebrafish embryo” value was “more toxic than [P][AuSEt(=S)]”. Further, the “toxicity seen as lower cell confluency” value in [11] is reported as “some degree of toxicity”. Moreover, the “MIC S. aureus Newman” value in data set [12] is over 125 µg/mL. Further, the “MIC E. coli ATCC25922” value in [13] was over 125 µg/mL. Also, in [14], the “MIC C. albicans SC5134” value is recorded as over 62.5 µg/mL. In addition, the “MIC C. glabrata CBS138” value in data set [15] was over 62.5 µg/mL.
`CCN1C(=C(C#N)C#N)SC2=C1[S][Au-]1([S]2)[S]C2=C([S]1)N(CC)C(=C(C#N)C#N)S2.CC[N+](CC)(CC)CC` [[N][AuSEt(=C(CN)2)]]: the figures for the IC50 in data set [7] (setting [16]), in data set [7] (setting [17]) and in data set [1] were 1320 ± 200 nM, 170 nM and 1480 ± 410 nM, respectively. Also, the “toxicity in zebrafish embryo” value in data set [10] was “more toxic than [N][AuSEt(=S)]”. Further, the “toxicity seen as lower cell confluency” value in data set [11] was “some degree of toxicity”. Besides, the “MIC S. aureus Newman” value in data set [12] is reported as over 125 µg/mL. In addition, in [13], the “MIC E. coli ATCC25922” value is recorded as over 125 µg/mL. In addition, the “MIC C. albicans SC5134” value in data set [14] is given as over 62.5 µg/mL. Moreover, the “MIC C. glabrata CBS138” value in data set [15] is reported as over 62.5 µg/mL.

The values above are taken from publication PMC9266914, “Broad Spectrum Functional Activity of Structurally Related Monoanionic Au(III) Bis(Dithiolene) Complexes” (International Journal of Molecular Sciences, 2022).
